Source: PMC5827756, “Inhibition of Heat Shock proteins HSP90 and HSP70 induce oxidative stress, suppressing cotton fiber development” (Scientific Reports, 2018)

Biological target: T1, human HSP70 (Homo sapiens, UniProt P0DMV8)
T1 construct: gene HSPA1A
Assay: citrate synthase thermoprotection (chaperone) assay, […] nm DTNB
Assay type: biochemical
Details: 0.5 µM porcine heart citrate synthase, 1.8 µM HSP, 43 °C, 50 mM HEPES pH 8.0; activity read at 25 °C; inhibitor concentration not stated

T1 sequence (P0DMV8 2-641): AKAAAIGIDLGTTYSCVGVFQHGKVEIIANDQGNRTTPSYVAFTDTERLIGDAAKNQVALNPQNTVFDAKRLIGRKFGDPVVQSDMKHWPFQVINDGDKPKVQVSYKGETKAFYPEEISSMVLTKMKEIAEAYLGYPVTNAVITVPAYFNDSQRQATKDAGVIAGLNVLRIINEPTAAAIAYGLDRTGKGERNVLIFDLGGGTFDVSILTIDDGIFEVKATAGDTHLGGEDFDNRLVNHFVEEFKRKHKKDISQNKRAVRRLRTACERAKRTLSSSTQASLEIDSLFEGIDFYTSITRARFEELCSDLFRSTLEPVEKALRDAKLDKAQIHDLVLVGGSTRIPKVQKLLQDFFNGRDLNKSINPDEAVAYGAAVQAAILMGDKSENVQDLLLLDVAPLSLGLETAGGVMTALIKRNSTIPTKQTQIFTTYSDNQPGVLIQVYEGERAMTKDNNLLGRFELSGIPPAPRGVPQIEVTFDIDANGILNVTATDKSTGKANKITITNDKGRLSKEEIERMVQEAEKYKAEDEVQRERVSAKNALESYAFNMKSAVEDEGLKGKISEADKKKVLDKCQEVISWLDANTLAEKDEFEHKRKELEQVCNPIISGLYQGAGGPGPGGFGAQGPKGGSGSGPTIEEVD

How did the “citrate synthase thermoprotection (chaperone) assay, 412 nm DTNB” value turn out when `NS(=O)(=O)C#Cc1ccccc1` [Pif, pifithrin] was run?
Its value is “Similarly, Pif also inhibits thermos-protection by HSP70”.
